Assay results reported in BindingDB's records for patent US20260049068 (Bristol Myers Squibb, 2026).

Tests used:
[1] = biological target: Diacylglycerol kinase alpha (Homo sapiens, UniProt P23743); assay: In Vitro DGK Inhibition Assay
Procedure: (§1) The DGKα (Full Length and Near Full Length) ADP Glo assays were performed using an extruded liposome prep at either 5% DAG or 10% DAG. The Enzymatic reactions were carried out in 50 mM MOPS pH 7.5, 100 mM NaCl, 10 mM MgCl2, 1 μM CaCl2, and 1 mM DTT (assay buffer). The lipid substrate concentrations were 1.9 mM PS, either 0.25 mM DAG (5% liposome prep) or 0.5 mM DAG (10% liposome prep), and 2.7 mM PC for the extruded liposome reactions. […] A 5 mL enzyme/substrate (substrate being the 5× or 10× liposome preparation) solution at 2× final reaction concentrations was prepared by combining 5 ml of the extruded liposome preparation with 10 nM (2× final) DGKα(Near Full Length) or DGKα(Full Length) prepared as described below) and incubated at room temperature for 10 minutes. Next, 1 μL of the 2× enzyme/substrate solution was added to wells containing the test compound and reactions were initiated with the addition of 1 μL 300 uM ATP. Substrate only was added to DMSO only wells for background measurements. The reactions were allowed to proceed for 1 hr, after which 2 μL Glo Reagent (Promega V9101) was added and incubated for 40 minutes. Next, 4 μL Kinase Detection Reagent was added and incubated for 30 minutes. Luminescence was recorded using an EnVision microplate reader. […] The compounds were evaluated at 11 concentrations to determine IC50.

[2] = biological target: T1, Diacylglycerol kinase alpha [9-727] (Homo sapiens, UniProt P23743); assay: In Vitro DGK Inhibition Assay
T1 construct: 9-727
T1 sequence (P23743 whole entry): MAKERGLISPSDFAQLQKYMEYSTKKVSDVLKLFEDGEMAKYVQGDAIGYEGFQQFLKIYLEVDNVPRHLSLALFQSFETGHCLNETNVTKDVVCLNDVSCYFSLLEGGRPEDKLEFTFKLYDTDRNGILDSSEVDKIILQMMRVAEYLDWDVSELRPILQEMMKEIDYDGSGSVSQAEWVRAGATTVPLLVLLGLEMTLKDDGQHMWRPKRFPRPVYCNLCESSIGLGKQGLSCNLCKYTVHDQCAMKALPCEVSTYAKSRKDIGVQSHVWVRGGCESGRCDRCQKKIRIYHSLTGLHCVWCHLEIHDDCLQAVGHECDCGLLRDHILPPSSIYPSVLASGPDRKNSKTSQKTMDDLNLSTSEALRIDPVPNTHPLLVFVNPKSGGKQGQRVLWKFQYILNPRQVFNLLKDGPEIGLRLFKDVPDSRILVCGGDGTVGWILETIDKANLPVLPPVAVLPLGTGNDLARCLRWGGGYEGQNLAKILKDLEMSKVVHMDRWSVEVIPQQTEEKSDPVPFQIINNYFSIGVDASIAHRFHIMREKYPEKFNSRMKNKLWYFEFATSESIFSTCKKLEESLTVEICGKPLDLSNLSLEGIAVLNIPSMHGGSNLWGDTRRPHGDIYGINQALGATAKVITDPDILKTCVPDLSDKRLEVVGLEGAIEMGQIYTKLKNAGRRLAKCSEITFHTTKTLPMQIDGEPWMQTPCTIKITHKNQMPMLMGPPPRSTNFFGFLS
Procedure: as §1

Diacylglycerol kinase alpha, sequence (P23743 whole entry): as above

Compound | IC50 [1] [µM] | IC50 [2] [nM]
CN(Cc1nnnn1-c1cc(C#N)cc([N+](=O)[O-])c1)C1CCCCC1 [US20260049068, Example 27] | – | 480
CN(Cc1nnnn1-c1ccc(Cl)c([N+](=O)[O-])c1)C1CCCCC1 [US20260049068, Example 28] | 0.06 | 120
CN(Cc1nnnn1-c1cccc([N+](=O)[O-])c1)C1CCOCC1 [US20260049068, Example 38] | 15 | –
CN(Cc1nnnn1-c1cccc([N+](=O)[O-])c1)C1CCN(C(=O)OC(C)(C)C)C1 (centres undefined) [US20260049068, Example 39] | 35 | –
CC(C)CN(C)Cc1nnnn1-c1cccc([N+](=O)[O-])c1 [US20260049068, Example 42] | 32 | –
CN(Cc1nnnn1-c1cccc([N+](=O)[O-])c1)C1CC1 [US20260049068, Example 44] | 180 | –
N#Cc1nc(-n2nnnc2CN(Cc2ccccc2)[C@@H]2CCCC[C@H]2O)ccc1Cl [US20260049068, Example 58] | 60 | –

More lines, in order of falling IC50 [1], values ahead:

IC50 [1] [µM] | IC50 [2] [nM] | Compound
120 | – | N#Cc1nc(-n2nnnc2CN(CC(O)c2ccccc2)C2CCCCC2)ccc1Cl (centres undefined) [US20260049068, Example 57]
55 | – | CN(Cc1nnnn1-c1cccc([N+](=O)[O-])c1)C1CCOC1 (centres undefined) [US20260049068, Example 40]
2.7 | 1200 | CC1CCC(N(C)Cc2nnnn2-c2cccc([N+](=O)[O-])c2)CC1 (centres undefined) [US20260049068, Example 2]
1.2 | 1600 | C=CCN(Cc1nnnn1-c1ccc(Cl)c(C#N)n1)C1CCCCC1 [US20260049068, Example 17]
